In PubChem BioAssay AID2305 (GlaxoSmithKline (GSK), 2010):
Values joined by “and” are separate entries in the source; they are usually repeats but may differ in a detail not shown here. Equal entries are not always repeated.

test system: P. falciparum 3D7 growth, pLDH absorbance; experiment: blood-stage malaria parasite growth potency – strain 3D7, dose response (AID 2305)

In order of rising IC50:
1. CN(C)CC(=O)Nc1ccc(-c2ccc3ccnc(N)c3c2)cc1  30 nM
2. Cc1[nH]c(C)c(-c2ccc(-c3ccc(OC(F)(F)F)cc3)cc2)c(=O)c1Br  40 nM
3. Cc1ccc(N2C(N)=NC(N)=NC2(C)C)cc1  40 nM
4. CCCN1CCN(CC(O)CNC(=O)Nc2ccc(Cl)cc2)CC1 (stereo not given)  100 nM
5. CN1CCN(Cc2ccc(-c3ccc4c(Nc5ccc(Cl)cc5F)ccnc4c3)o2)CC1  150 nM
6. O=C(Nc1ccc(C2=NC3CCCCC3N2)cc1)Nc1ccc(C2=NC3CCCCC3N2)cc1 (stereo not given)  180 nM
7. Cc1ccc2nc(C)n(C3CCN(C(=O)Cc4ccccc4C)CC3)c2c1  240 nM
8. CCCN1CCN(CCNC(=O)c2cccc(Nc3nccc(Nc4ccc(Oc5ccccc5)cc4)n3)c2)CC1  240 nM
9. CN(C)c1cccc(NC(=O)N[C@H]2N=C(c3ccccc3)c3ccccc3N(CC(=O)N3CCCC3)C2=O)c1  250 nM
10. O=C(Nc1ccc(-c2nc3ccccc3[nH]2)cc1)c1ccc(-c2cccc([N+](=O)[O-])c2)o1  270 nM
11. Clc1cc(Cl)c2cc(CN[C@H]3CCC[C@@H]3CNc3nc4ccccc4[nH]3)[nH]c2c1  270 nM
12. CCn1cc(C=C2Oc3c(ccc(O)c3CN3CCCCC3)C2=O)c2ccccc21  280 nM
13. COc1ccc2nccc([C@@H](O)CN3CCC(NCc4ccc5c(c4)OCCO5)CC3)c2c1  290 nM
14. CC(C)CN1CCN(c2nc(C#N)c3c(c2C(=S)NC2CCCCC2)CC(C)(C)OC3)CC1  300 nM
15. CS(=O)(=O)c1cccc(-c2cnc3[nH]cc(-c4ccc(C(=O)O)cc4)c3c2)c1  340 nM
16. Cc1nnsc1C(=O)Nc1cccc(-c2csc(-c3nc4ccccc4[nH]3)c2)c1  350 nM
17. NC(=O)c1ccc(C(=O)Nc2cccc(-c3csc(-c4nc5ccccc5[nH]4)c3)c2)cc1  350 nM
18. COc1ccc(NC(=O)/C=C/c2ccccc2Cl)cc1OCCN1CCC(NCc2ccccc2)CC1  350 nM
19. COc1ccc(OC)c([C@H](O)[C@@H](C)NCc2cc(Cl)ccc2O)c1  380 nM
20. Cn1cnc(CCNC(=O)c2ccc(-c3ccc(-c4nc5ccc(C(F)(F)F)cc5[nH]4)s3)cc2)c1  400 nM
21. COc1cc2c(c(Cl)c1OC)CCN(C(=O)C(F)(F)F)CC2c1ccccc1 (stereo not given)  440 nM
22. COc1ccc(NC(=O)/C=C/c2ccccc2Cl)cc1OCCN1CCC(N2CCN(C)CC2)CC1  490 nM
23. COc1ccc2nccc(NN=Cc3cccnc3)c2c1  500 nM
24. CC(Oc1cccc(Cl)c1)C(=O)N1CCc2ccccc21 (stereo not given)  510 nM
25. CN1CCN(c2cc3c(cc2Cl)CCN3C(=O)Nc2ccc(NC(=O)c3ccc(C(F)(F)F)cc3)cc2)CC1  510 nM
26. CC(=O)Nc1ccc2[nH]cc(C3CCN(CCC4CCN(C(=O)/C=C/c5ccc(Cl)c(Cl)c5)CC4)CC3)c2n1  520 nM
27. COc1cc2c(cc1OC)CN(CCc1ccc(NC(=O)c3cc4cc(OC(F)(F)F)ccc4[nH]3)cc1)CC2  530 nM
28. C=C[C@H]1CN(CCCCCCC)CC[C@H]1CC(=O)Nc1cnnc2ccc(OC)cc12  530 nM
29. CCCN(CCC)CCCNc1ccc(C(=O)Nc2ccc(C)c(F)c2)cc1[N+](=O)[O-]  540 nM
30. O=C(Nc1ccccc1)N(Cc1ccc(-c2ccc(CNCc3ccc4c(c3)OCO4)cc2)cc1)C1CCN(Cc2ccccc2)CC1  570 nM
31. CC(C)N1CCN(C(CN2CCN(CCCOc3ccc4ccccc4c3)CC2)c2ccc(F)cc2)CC1 (stereo not given)  580 nM
32. O=C(NCC1CCN(Cc2cccc(C(F)(F)F)c2)C1)c1cc(-c2cccc(C(F)(F)F)c2)cs1 (stereo not given)  610 nM
33. CN1CCCN(Cc2ccc(-c3cccc(NC(=O)c4ccc(Cl)cc4)c3)cc2)CC1  610 nM
34. CCOC(=O)c1c(-c2ccccc2)c(C(=O)OCC)n2ccccc12  610 nM
35. C#CCN(Cc1cc2c(=O)[nH]c(N)nc2cc1C)c1ccc(C(=O)N[C@@H](CCC(=O)O)C(=O)O)cc1  630 nM
36. CC(C)CNC(=O)c1cncc(-c2ccc(CNC3Cc4ccccc4C3)cc2)c1  700 nM
37. CCC[C@@H]1CCN[C@H]([C@H](O)c2ccnc3ccc(OC)cc23)C1  730 nM
38. O=c1cc(NCCCCNCc2cccc(Br)c2)[nH]c2ccccc12  730 nM
39. O=C(C=CC(=O)N1CCCCC1)NCc1ccccc1  730 nM
40. COc1ccc(Cn2c(=O)[nH]c3cc(C(=O)NC4CCN(Cc5ccccc5)CC4)ccc3c2=O)cc1  750 nM
41. NC1=NC(c2ccccc2)(c2ccccc2)C(=O)N1CC1CCC1  750 nM
42. CCOc1ccc2nc(C)cc(NN=Cc3cccc(C)n3)c2c1  750 nM
43. C[C@H](Cc1ccc(OCCCCOc2ccc(C[C@@H](C)NC[C@H](O)c3cccc(Cl)c3)cc2)cc1)NC[C@H](O)c1cccc(Cl)c1  760 nM
44. CN(C)S(=O)(=O)c1ccc(C(=O)N(c2nc(-c3ccccc3)cs2)C2CCCCC2)cc1  760 nM
45. O=C(Nc1ccc2nc3n(c(=O)c2c1)CCCCC3)C(=O)N1CCC(Cc2ccccc2)CC1  760 nM
46. Cc1ccc(S(=O)(=O)N(CCCNCc2cccc(O)c2)c2ccccc2)cc1  770 nM
47. O=S(=O)(Nc1cccc(CCN2CCC(N3CCCCC3)CC2)c1)c1ccc(Oc2ccccc2)cc1  770 nM
48. CCOc1ccc2nc(N(CCCn3ccnc3)C(=O)C=Cc3cccs3)sc2c1  780 nM
49. CC1CCc2c(C(=O)N3CCc4ccccc4C3)csc2C1 (stereo not given)  780 nM
50. Oc1ccc2[nH]c(-c3cccs3)nc2c1CN1CCC(O)(c2ccccc2)CC1  780 nM
51. CCOc1cc2c(cc1OCC)C(c1ccc(O)c(Cl)c1)NCC2 (stereo not given)  790 nM
52. O=C1COc2cc(Cl)c(CNC3CCN(CCc4ccnc5c(F)cc(F)cc45)CC3)nc2N1  800 nM
53. CC(=O)Nc1ccc(C(=O)NC2CCN(c3ccnc4cc(Cl)ccc34)C2)cc1 (stereo not given)  810 nM
54. O=C(C1CC1)N1c2ccccc2CCc2ccccc21  830 nM
55. COc1ccc2nccc([C@@H](O)CN3CCC(NCc4cc5cccc(O)c5[nH]4)CC3)c2c1  840 nM
56. COc1cccc(-c2cc(C(=O)Nc3ccc4nc(-c5ccccc5)[nH]c4c3)[nH]n2)c1  840 nM
57. CN1CCCC1CCNCc1cccc(-c2cnc(N(C)C3CCCCC3)nc2)c1 (stereo not given)  850 nM
58. CCN1CCN(Cc2ccc(NC(=O)c3cc4ccc5cccnc5c4[nH]3)cc2)CC1  850 nM
59. COc1ccc(CNCc2ccccc2)cc1-c1ccc(S(=O)(=O)NCCN2CCCC2)c(C)c1  860 nM
60. O=C(/C=C/c1ccc(C(F)(F)F)cc1)NCCCCCN1CCCN(C(=O)Nc2ccc(Cl)cc2)CC1  870 nM
61. O=C(Nc1ccc(Br)cc1)c1cc(Br)ccc1NS(=O)(=O)c1cc(C(F)(F)F)cc(C(F)(F)F)c1  880 nM
62. COc1cncc(/C=C/c2cncc(C(=O)NCCc3ccc(Cl)cc3Cl)c2)c1  880 nM
63. O=c1cc(NCCCNCc2cn(S(=O)(=O)c3ccccc3)c3ccccc23)[nH]c2ccccc12  880 nM
64. O=C(Nc1cc(C(F)(F)F)cc(C(F)(F)F)c1)c1cccc([N+](=O)[O-])c1  890 nM
65. O=C(NCC1CCC(C(=O)O)CC1)c1ccc(/C=C/C(=O)N2CCc3ccccc3C2c2ccc3c(c2)OCO3)cc1 (stereo not given)  890 nM
66. FC(F)(F)c1ccccc1OCc1cc(-c2ccncc2)c(COc2ccccc2C(F)(F)F)cc1C1=CCNCC1  890 nM
67. CCOc1ccc(C=CC(=O)Nc2ccc3nc(N4CCOCC4)cc(C)c3c2)cc1OC  900 nM
68. Cc1cc(N[C@@H](Cc2ccccc2)C(=O)NCc2cccc(F)c2)nc(Nc2ccccc2)n1  930 nM
69. COc1cccc(-c2cccc(CNC3CCN(CC4Cn5c(=O)ccc6ccc(F)c4c65)CC3)c2)c1 (stereo not given)  930 nM
70. O=S(=O)(c1ccccc1Cl)N1CCCCC(c2ccc(C(F)(F)F)cc2)=N1  940 nM
71. CC(Cc1ccc(NC(=O)CCCc2ccccc2)cc1)NCCc1cccc(Cl)c1 (stereo not given)  950 nM
72. Cc1ccc2c(NN=Cc3ccc(Cl)cc3)cc(C)nc2c1  950 nM
73. COc1ccc2c(NN=Cc3ccncc3)ccnc2c1  960 nM
74. Cc1cc2ncn(-c3nccc(NCc4ccc(F)c(C)c4)n3)c2cc1C  990 nM
75. O=c1[nH]c(NCCCNCc2cc3c(Cl)cc(Cl)cc3[nH]2)nc2ccccc12  990 nM
76. CS(=O)(=O)NCCCNCc1cccc(-c2ccc(-c3nc4ccc(C(F)(F)F)cc4[nH]3)cc2)c1  1000 nM
77. O=C(Cc1ccc(Cl)cc1)Nc1cc(Cl)ccc1Cn1cnc(N2CCNCC2)cc1=O  1000 nM
78. CCOC(=O)c1ccc(N=C2SC(=Cc3cc(Br)ccc3O)C(=O)N2C)cc1  1000 nM
79. FC(F)(F)c1cc(CNCCCNc2nc3ccncc3[nH]2)ccc1Cl  1010 nM
80. Cc1ccccc1C1CCN(c2ncc(C(=O)Nc3ccccc3)cc2Cl)CC1  1010 nM
81. COc1cccc(C(=O)Nc2ccc(Nc3nc(C)cc(N(C)C)n3)cc2)c1OC  1020 nM
82. O=C(Nc1ccc(OC2CCN(Cc3ccc(F)cc3)C2)cc1)c1ccco1 (stereo not given)  1040 nM
83. Fc1cc(CN2CCCC2)ccc1OCCCN1CCN(c2cccc(Cl)c2Cl)CC1  1040 nM
84. Cc1ccc(S(=O)(=O)NC2CCN(CCNC(=O)Nc3cc(C)nc4ccccc34)C2)cc1 (stereo not given)  1040 nM
85. CCOc1ccc(Br)cc1/C=C/C(=O)Nc1ccc2c(c1)CCCN(C)C2  1050 nM
86. COc1ccc(NC(=O)CCNc2cc(C)nc(NCc3ccccc3C)n2)cc1  1070 nM
87. Nc1ncc(-c2ccccc2)cc1/C=C/c1cccnc1  1120 nM
88. CCCCOc1ccc(CNCCCCCCNCc2ccc(OCCCC)c3ccccc23)c2ccccc12  1130 nM
89. Cc1ccc2nc(NC#N)[nH]c2c1  1150 nM
90. N#Cc1cccc(C(=O)Nc2ccc(-c3ccc(CN4CCCC4)cc3)cc2)c1  1150 nM
91. CC(C)c1ccc(NC(=O)c2ccc(CN3CCCN(Cc4cccc(Cl)c4)CC3)cc2)cc1  1160 nM
92. O=C1OC2(CN1CC1CCN(Cc3ccc(O)cc3Cl)C1)c1ccccc1-c1ccccc12 (stereo not given)  1170 nM
93. CC(C)CC(=O)N1CCNC[C@@H]1C(=O)NCCSCc1c(F)cccc1Cl  1200 nM
94. NC1=NC(c2ccccc2)(c2ccccc2)C(=O)N1CCCCc1ccccn1  1260 nM
95. COc1ccc(C(=O)COc2cccc(/C=C/C(=O)O)c2)cc1OC  1320 nM
96. COc1ccc(CCn2c(=N)c(C(=O)NCc3cccnc3)cc3c(=O)n4cccc(C)c4nc32)cc1  1400 nM
97. CN(C)c1ccc(CN2CCC(CNC(=O)c3cc(-c4ccccc4Cl)cs3)C2)cc1 (stereo not given)  1440 nM
98. COc1ccccc1C1CCN(C2CCC(NC(=O)/C=C/c3cc(F)c(F)cc3F)CC2)CC1 (stereo not given)  1600 nM
99. CC(C)c1ccc(-c2noc(SCC(=O)N3CCCCC3C)n2)cc1 (stereo not given)  1670 nM

In the case of `Cc1[nH]c2cccc(F)c2c(=O)c1Cc1ccc(Cl)cc1` (tested in a mixture with another compound), the IC50 is reported as 230 nM and 350 nM.
